Usually IC50 stands for the midpoint of a concentration-inhibition curve.

In one experiment the test system is NB4 cells. As to the kind of experiment: Cell cycling, flow cytometry of intracellular DNA content. The experiment is classed as cell-based, human. The following applies: synchronized populations, controls 22 hours. On the procedure: There is no G1 block. This effect is due to a lengthening of the duration of the cell cycle. […] The data were acquired using flow cytometry analysis of the individual intracellular DNA content of cells from synchronized populations. Sampling was done every 5 hours over a period of 48 hours.
(In general: Flow cytometry measures light scatter and fluorescence of single cells or particles in a stream.)

For experiment [1], the system named is NB4. As to the kind of experiment: Differentiating properties of combinations of β-Car^OX and retinoic acid. The following applies: Retinoic Acid L 0.1–1 μM alone. The experiment is classed as cell-based, human. The text has this: (§1) Given the cell differentiation-inducing properties of β-Car^OX and some of its fractions, it is instructive not only to compare the effects obtained with those of the better known all-trans retinoic acid, which is recognized as being able to regulate differentiation capacities of several mammalian cell types, but to determine also the effect upon cells when β-Car^OX and retinoic acid are used together. Table 4 presents qualitative data illustrating the results obtained with various combinations of β-Car^OX and retinoic acid in both the NB4 and IMR32 cell lines.
(§2) When an equipotent concentration of β-Car^OX is combined with retinoic acid, their differentiation-inducing effects cancel out. However, when the concentration of either one of them is increased relative to the other, differentiation-induction is restored.

In experiment [2] the test system is IMR32. Described as above. In kind it is cell-based, human. The following applies: Retinoic Acid L 1–2.5 μM alone.
Description: as §1, §2

In the next experiment the test system is IMR32 cell line. As to the kind of experiment: Expression of NF and GFAP markers. The experiment is classed as cell-based, human. The conditions noted are these: β-Car^OX 0 μM. An excerpt: Expression of glial fibrillary acidic protein, GFAP, is a useful marker indicating differentiation towards glial cells.
For experiment [3], the system named is NB4. As to the kind of experiment: Cytostatic effect (Hoechst 33258 DNA fluorescence, 3 days). In kind it is cell-based, human. Also on record: key: +: activity higher; 0: similar to; −: less than the activity of β-Car^OX. The conditions noted are these: ranked relative to β-Car^OX across six concentrations 2.5-22.5 μM. On the procedure:
(§3) Fractions were tested for cytostatic properties and ability to induce differentiation. The results were compared with those obtained for β-Car^OX, which served as a reference indicating whether or not fractionation was leading to fractions with enhanced activity. Retinoic acid and/or β-carotene were used as controls in some of the cell lines tested in order to differentiate their effects from that of β-Car^OX. All of the samples were tested in identical ‘by weight’ concentrations. Comparisons have been done on a pseudo molarity scale by dividing the weight of sample used by the molecular weight of β-carotene (537 Da). Fractions were tested in human colon carcinoma (HCT116), human neuroblastoma (IMR32), human acute promyelocytic leukemia (NB4), human chronic myelogenous leukemia (K562), and mouse keratinocytes (Balb/c/MK).
(§4) Fractions have been ranked relative to β-Car^OX by dividing each growth inhibition value at each sample concentration by the corresponding β-Car^OX value and determining qualitatively by inspection the trends across the six sample concentrations. Activities of fractions are expressed as “+”, “0”, and “−”, indicating activity higher, similar to, and less than the activity of β-Car^OX, respectively.

In the next experiment the test system is K562. The experiment is described as above. The experiment is classed as cell-based, human. On the set-up: key: +: activity higher; 0: similar to; −: less than the activity of β-Car^OX. The conditions noted are these: ranked relative to β-Car^OX across six concentrations 2.5-22.5 μM. The procedure: as §3, §4
In a further experiment the test system is HCT116. Described as above. In kind it is cell-based, human. On the set-up: key: +: activity higher; 0: similar to; −: less than the activity of β-Car^OX. The following applies: ranked relative to β-Car^OX across six concentrations 2.5-45 μM. On the procedure: as §3, §4
Experiment [4] relates to IMR32. Described as above. The experiment is classed as cell-based, human. On the set-up: key: +: activity higher; 0: similar to; −: less than the activity of β-Car^OX. The following applies: ranked relative to β-Car^OX across six concentrations 2.5-45 μM. The procedure:
as §3, §4

The test system of another experiment is NB4 cell line. Nature of the experiment: Expression of differentiation markers CD33, CD11b, CD15 at five days. The experiment is classed as cell-based, human. The conditions noted are these: combined treatments 1 μM RA and 7.5 μM β-Car^OX or fraction. On the procedure: The cell differentiation-inducing effects of the fractions were determined qualitatively by observation of morphological changes in cell lines and quantitatively by measuring the expression of characteristic protein markers using monoclonal antibodies and flow cytometry. […] Many differentiation markers are expressed transiently during the differentiation program. In the NB4 cell line, protein CD33 is associated with early stages of differentiation, followed by protein CD11b, an intermediate marker, and eventually by protein CD15, an advanced differentiation marker. Enhanced differentiation therefore will be characterized by a decrease in the expression and intensity of the CD33 marker and an increase in expression and intensity of the CD15 marker.

In another experiment the test system is Balb/c/MK keratinocytes. Nature of the experiment: Expression of cytokeratins in keratinocytes. The experiment is classed as cell-based, mouse. The conditions noted are these: Ca^++ 1.8 mM, Retinoic Acid 3 μM, β-Car^OX 30 μM; for IA, intensity of expression per cell, Cytokeratins 1 and 10: control 4.4; for IA, intensity of expression per cell, panel (CAMON) of Cytokeratins: control 60.7; for A, percentage of immunopositive cells expressing Cytokeratins 1 and 10: control 90.3; for A, percentage of immunopositive cells expressing a panel (CAMON) of Cytokeratins: control 93.7. The text has this: Qualitative data were provided in the first phase of research for the differentiation-inducing effect of β-Car^OX upon the mouse Balb/c/MK keratinocyte cell line.
Cytokeratins 1 and 10 are high molecular weight proteins which are increasingly expressed with the progression of the differentiation program. […] Cells cultured in low calcium media remain proliferative. […] The apparently smaller effect of β-Car^OX compared to retinoic acid is due not to lower potency but to a delayed action and similar results are obtained using a panel of other cytokeratins (Cytokeratin coctail from CAMON containing cytokeratins 1–8, 10, 13, 14, 15, 16, 19).

For another experiment, the system named is DA-3 cell line. Nature of the experiment: Viability (MTT test), melphalan with β-Car^OX. In kind it is cell-based. The following applies: Mus musculus. An excerpt:
The benefit of the cellular GSH-lowering effect is illustrated by what happens to the viability of DA-3 cells, using the MTT test, treated with both β-Car^OX and melphalan, a classical anticancer agent.

Regarding `CC1=C(/C=C/C(C)=C/C=C/C(C)=C/C(=O)O)C(C)(C)CCC1` [All trans Retinoic Acid], the “duration of the cell cycle” value in the experiment on NB4 cells was 18 h. Moreover, in the experiment on NB4 [1], the Differentiation result was “yes”. Further, the Differentiation entry in the experiment on IMR32 [2] is recorded as “yes”. Further, in the experiment with IMR32 cell line (RA 1.0 μM), the GFAP % is 94.4%, the GFAP intensity was determined as 18.4, the NF % is 96.4% and the NF intensity turned out to be 14.2. In the experiment on IMR32 cell line (RA 2.5 μM), this compound showed a GFAP % of 90.5%, a GFAP intensity of 6.1, an NF % of 97.2% and an NF intensity of 11.9. In the experiment with IMR32 cell line (RA 5.0 μM), this compound gave a GFAP % of 87.5%, a GFAP intensity of 5.2, an NF % of 95.5% and an NF intensity of 8.4. In the experiment on IMR32 cell line (RA 10.0 μM), this compound registered a GFAP % of 83.1%, a GFAP intensity of 4.0, an NF % of 92.0% and an NF intensity of 7.9. Moreover, the “Cytostatic Effect On Cell Lines, NB4” value with NB4 [3] turned out to be 0. Further, the “Cytostatic Effect On Cell Lines, K562” value with K562 came to 0. In addition, in the experiment on HCT116, the “Cytostatic Effect On Cell Lines, HCT116” value is given as “−”. The “Cytostatic Effect On Cell Lines, IMR32” value in the experiment with IMR32 [4] is recorded as “+”. Also, in the experiment with NB4 cell line, the “CD11b A, percentage of immunopositive cells” value was found to be 71.9; the “CD11b IA, average intensity of marker expression per cell” value amounted to 2.6 arbitrary units; the “CD15 A, percentage of immunopositive cells” value is on record as 73.1; the “CD15 IA, average intensity of marker expression per cell” value worked out at 73.1 arbitrary units. In addition, in the experiment with NB4 cell line, the “CD33 A, percentage of immunopositive cells” value is recorded as 87.1 and the “CD33 IA, average intensity of marker expression per cell” value stood at 1.6 arbitrary units. Moreover, in the experiment on Balb/c/MK keratinocytes, the “IA, intensity of expression per cell, Cytokeratins 1 and 10” value was 15.4 arbitrary units; the “IA, intensity of expression per cell, panel (CAMON) of Cytokeratins” value is on record as 129.8 arbitrary units; the “A, percentage of immunopositive cells expressing Cytokeratins 1 and 10” value stood at 94.5; the “A, percentage of immunopositive cells expressing a panel (CAMON) of Cytokeratins” value worked out at 94.3.

As to `[Ca+2]` [Ca^++], in the experiment on Balb/c/MK keratinocytes, the “IA, intensity of expression per cell, Cytokeratins 1 and 10” value turned out to be 13.8 arbitrary units; the “IA, intensity of expression per cell, panel (CAMON) of Cytokeratins” value is on record as 87.2 arbitrary units; the “A, percentage of immunopositive cells expressing Cytokeratins 1 and 10” value is given as 96.5; the “A, percentage of immunopositive cells expressing a panel (CAMON) of Cytokeratins” value stood at 97.6.

Turning to `N[C@@H](Cc1ccc(N(CCCl)CCCl)cc1)C(=O)O` [Melphalan], the concentration for half-maximal inhibition (IC50) came out at 40 µM in the experiment with DA-3 cell line (DA-3, in presence of β-Car^OX 5 μM); 44 µM with DA-3 cell line (DA-3, in presence of β-Car^OX 7.5 μM); 6.6 µM in the experiment with DA-3 cell line (DA-3, in presence of β-Car^OX 10 μM); 6.8 µM in the experiment on DA-3 cell line (DA-3, in presence of β-Car^OX 20 μM); 100 µM in the experiment on DA-3 cell line (DA-3, β-Car^OX 0 μM).

As for `CC1=C(/C=C/C(C)=C/C=C/C(C)=C/C=C/C=C(C)/C=C/C=C(C)/C=C/C2=C(C)CCCC2(C)C)C(C)(C)CCC1` [β-Carotene], the “Cytostatic Effect On Cell Lines, NB4” value with NB4 [3] is recorded as “−”. Moreover, in the experiment with K562, the “Cytostatic Effect On Cell Lines, K562” value is listed as “−”. For the same compound, in the experiment with HCT116, the “Cytostatic Effect On Cell Lines, HCT116” value is listed as “−”. Moreover, the “Cytostatic Effect On Cell Lines, IMR32” value in the experiment on IMR32 [4] turned out to be 0.
